# According to ChEMBL document CHEMBL3132769, “Fragment growing to retain or alter the selectivity of anchored kinase hinge-binding fragments” (Medchemcomm, 2014):
# Experiments:
# [1] = system: Tyrosine-protein kinase ABL1 (Homo sapiens), P00519 [T315I]; assay: Inhibition of human truncated ABL T315I mutant expressed in baculovirus assessed as substrate phosphorylation using fluorescence-labelled peptides as substrate at 70 uM after 90 mins by microfluidic peptide phosphorylation assay
# [2] = target: Dual specificity tyrosine-phosphorylation-regulated kinase 1A (Rattus norvegicus) (UniProt Q63470); assay: Inhibition of rat full length DYRK1a expressed in Escherichia coli cell assessed as substrate phosphorylation using fluorescence-labelled peptides as substrate at 70 uM after 90 mins by microfluidic peptide phosphorylation assay
# [3] = target: T1, cGMP-dependent protein kinase 1 (Homo sapiens) (UniProt Q13976); assay: Inhibition of human full length PKG-1a expressed in baculovirus assessed as substrate phosphorylation using fluorescence-labelled peptides as substrate at 0.2 uM after 90 mins by microfluidic peptide phosphorylation assay
# T1 sequence (whole entry): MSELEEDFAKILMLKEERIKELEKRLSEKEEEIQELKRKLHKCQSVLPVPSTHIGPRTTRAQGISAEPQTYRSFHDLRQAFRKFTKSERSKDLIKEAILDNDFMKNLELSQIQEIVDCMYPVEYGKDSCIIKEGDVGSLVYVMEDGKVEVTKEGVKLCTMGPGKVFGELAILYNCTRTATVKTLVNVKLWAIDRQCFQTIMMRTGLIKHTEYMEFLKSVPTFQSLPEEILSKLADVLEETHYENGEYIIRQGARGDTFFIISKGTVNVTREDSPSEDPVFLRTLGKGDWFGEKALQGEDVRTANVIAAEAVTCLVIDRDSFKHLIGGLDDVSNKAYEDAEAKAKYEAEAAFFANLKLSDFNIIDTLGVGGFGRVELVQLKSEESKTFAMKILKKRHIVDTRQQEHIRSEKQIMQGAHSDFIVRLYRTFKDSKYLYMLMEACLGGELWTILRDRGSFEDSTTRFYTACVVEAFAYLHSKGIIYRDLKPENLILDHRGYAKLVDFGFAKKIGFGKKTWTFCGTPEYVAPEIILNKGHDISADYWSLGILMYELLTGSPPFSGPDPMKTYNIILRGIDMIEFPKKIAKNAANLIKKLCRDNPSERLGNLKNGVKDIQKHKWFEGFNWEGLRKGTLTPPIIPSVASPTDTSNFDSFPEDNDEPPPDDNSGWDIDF
# [4] = target: T2, Serine/threonine-protein kinase Sgk3 (Homo sapiens) (UniProt Q96BR1); assay: Inhibition of human full length SGK3 expressed in baculovirus assessed as substrate phosphorylation using fluorescence-labelled peptides as substrate at 9 uM after 90 mins by microfluidic peptide phosphorylation assay
# T2 sequence (whole entry): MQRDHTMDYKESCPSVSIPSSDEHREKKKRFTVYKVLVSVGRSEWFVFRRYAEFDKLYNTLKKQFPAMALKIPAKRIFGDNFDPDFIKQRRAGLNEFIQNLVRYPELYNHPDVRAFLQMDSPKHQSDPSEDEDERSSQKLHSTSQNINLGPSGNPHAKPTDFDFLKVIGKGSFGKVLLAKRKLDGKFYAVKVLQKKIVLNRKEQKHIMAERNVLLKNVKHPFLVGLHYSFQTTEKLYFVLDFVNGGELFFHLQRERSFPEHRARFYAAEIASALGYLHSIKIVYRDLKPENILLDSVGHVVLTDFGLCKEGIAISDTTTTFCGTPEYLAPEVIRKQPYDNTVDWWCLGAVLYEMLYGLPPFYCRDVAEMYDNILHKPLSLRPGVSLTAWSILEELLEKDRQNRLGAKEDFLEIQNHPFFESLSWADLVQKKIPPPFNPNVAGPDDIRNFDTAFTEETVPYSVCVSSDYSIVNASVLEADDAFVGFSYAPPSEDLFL
# [5] = target: Epidermal growth factor receptor (Homo sapiens) (UniProt P00533); assay: Inhibition of human EGFR catalytic domain expressed in baculovirus assessed as substrate phosphorylation using fluorescence-labelled peptides as substrate at 9 uM after 90 mins by microfluidic peptide phosphorylation assay
# Chain of Epidermal growth factor receptor (Homo sapiens) (P00533 whole entry, the tested form may be a part): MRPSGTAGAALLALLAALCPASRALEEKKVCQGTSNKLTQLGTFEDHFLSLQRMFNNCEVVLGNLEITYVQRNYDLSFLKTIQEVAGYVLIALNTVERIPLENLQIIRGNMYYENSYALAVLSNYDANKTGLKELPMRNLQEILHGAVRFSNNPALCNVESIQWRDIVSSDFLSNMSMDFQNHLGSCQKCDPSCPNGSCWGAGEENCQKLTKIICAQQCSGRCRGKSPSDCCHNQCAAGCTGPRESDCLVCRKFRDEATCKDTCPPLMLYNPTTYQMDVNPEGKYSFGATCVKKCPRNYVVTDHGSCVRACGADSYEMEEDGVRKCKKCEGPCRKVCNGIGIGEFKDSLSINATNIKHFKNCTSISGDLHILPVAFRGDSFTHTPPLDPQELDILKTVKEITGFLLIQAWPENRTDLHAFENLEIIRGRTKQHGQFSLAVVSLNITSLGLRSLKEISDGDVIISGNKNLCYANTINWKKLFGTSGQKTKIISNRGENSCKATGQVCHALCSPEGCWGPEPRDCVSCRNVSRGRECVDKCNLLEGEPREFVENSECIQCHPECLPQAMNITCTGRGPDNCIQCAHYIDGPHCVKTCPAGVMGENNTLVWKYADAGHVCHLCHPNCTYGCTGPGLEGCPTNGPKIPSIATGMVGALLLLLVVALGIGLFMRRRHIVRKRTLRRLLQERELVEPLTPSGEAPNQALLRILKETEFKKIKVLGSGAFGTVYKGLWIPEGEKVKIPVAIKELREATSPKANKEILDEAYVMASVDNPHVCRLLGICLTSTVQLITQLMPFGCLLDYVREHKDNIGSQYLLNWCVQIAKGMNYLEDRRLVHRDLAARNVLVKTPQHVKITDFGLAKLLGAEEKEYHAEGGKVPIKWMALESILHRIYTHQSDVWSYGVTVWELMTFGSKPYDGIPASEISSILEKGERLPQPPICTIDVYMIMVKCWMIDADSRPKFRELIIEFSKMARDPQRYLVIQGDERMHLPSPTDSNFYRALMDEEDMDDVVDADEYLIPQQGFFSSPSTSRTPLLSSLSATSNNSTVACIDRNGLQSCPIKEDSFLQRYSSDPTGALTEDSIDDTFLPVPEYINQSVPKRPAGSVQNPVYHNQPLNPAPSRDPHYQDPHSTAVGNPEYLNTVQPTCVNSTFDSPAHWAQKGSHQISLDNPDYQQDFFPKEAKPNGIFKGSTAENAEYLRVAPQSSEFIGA
# [6] = target: T3, Serine/threonine-protein kinase D1 (Homo sapiens) (UniProt Q15139); assay: Inhibition of human full length PKD1 expressed in baculovirus assessed as substrate phosphorylation using fluorescence-labelled peptides as substrate at 1000 uM after 90 mins by microfluidic peptide phosphorylation assay
# T3 sequence (whole entry): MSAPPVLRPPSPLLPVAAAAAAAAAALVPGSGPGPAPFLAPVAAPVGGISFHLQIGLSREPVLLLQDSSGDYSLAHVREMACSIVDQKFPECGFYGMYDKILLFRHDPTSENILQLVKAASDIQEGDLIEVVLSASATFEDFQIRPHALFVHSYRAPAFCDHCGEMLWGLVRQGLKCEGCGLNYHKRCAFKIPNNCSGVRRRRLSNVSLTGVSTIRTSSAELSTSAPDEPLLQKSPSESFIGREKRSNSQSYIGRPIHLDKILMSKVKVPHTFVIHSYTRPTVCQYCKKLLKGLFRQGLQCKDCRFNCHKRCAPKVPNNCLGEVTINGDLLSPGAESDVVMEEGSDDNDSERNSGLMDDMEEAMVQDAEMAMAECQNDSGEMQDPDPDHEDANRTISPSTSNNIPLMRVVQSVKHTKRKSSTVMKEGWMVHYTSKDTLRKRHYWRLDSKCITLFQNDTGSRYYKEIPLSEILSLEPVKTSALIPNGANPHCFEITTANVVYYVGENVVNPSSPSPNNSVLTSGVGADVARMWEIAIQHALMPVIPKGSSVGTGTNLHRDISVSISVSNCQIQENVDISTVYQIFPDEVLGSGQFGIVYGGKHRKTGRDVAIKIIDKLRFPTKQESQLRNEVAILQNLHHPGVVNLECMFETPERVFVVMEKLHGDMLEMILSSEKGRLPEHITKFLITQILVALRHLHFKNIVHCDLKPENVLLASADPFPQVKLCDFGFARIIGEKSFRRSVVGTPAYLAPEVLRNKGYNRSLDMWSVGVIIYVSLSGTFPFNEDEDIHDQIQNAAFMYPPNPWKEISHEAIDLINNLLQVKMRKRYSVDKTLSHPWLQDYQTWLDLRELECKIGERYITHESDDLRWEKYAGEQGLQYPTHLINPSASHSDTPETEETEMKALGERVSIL
# [7] = system: Tyrosine-protein kinase ABL1 (Homo sapiens), P00519 [H396P]; assay: Inhibition of human truncated ABL H396P mutant expressed in baculovirus assessed as substrate phosphorylation using fluorescence-labelled peptides as substrate at 2 uM after 90 mins by microfluidic peptide phosphorylation assay
# [8] = target: Ribosomal protein S6 kinase alpha-4 (Homo sapiens) (UniProt O75676); assay: Inhibition of human full length MSK2 expressed in baculovirus assessed as substrate phosphorylation using fluorescence-labelled peptides as substrate at 8 uM after 90 mins by microfluidic peptide phosphorylation assay
# Chain of Ribosomal protein S6 kinase alpha-4 (Homo sapiens) (O75676 whole entry, looked up, canonical isoform): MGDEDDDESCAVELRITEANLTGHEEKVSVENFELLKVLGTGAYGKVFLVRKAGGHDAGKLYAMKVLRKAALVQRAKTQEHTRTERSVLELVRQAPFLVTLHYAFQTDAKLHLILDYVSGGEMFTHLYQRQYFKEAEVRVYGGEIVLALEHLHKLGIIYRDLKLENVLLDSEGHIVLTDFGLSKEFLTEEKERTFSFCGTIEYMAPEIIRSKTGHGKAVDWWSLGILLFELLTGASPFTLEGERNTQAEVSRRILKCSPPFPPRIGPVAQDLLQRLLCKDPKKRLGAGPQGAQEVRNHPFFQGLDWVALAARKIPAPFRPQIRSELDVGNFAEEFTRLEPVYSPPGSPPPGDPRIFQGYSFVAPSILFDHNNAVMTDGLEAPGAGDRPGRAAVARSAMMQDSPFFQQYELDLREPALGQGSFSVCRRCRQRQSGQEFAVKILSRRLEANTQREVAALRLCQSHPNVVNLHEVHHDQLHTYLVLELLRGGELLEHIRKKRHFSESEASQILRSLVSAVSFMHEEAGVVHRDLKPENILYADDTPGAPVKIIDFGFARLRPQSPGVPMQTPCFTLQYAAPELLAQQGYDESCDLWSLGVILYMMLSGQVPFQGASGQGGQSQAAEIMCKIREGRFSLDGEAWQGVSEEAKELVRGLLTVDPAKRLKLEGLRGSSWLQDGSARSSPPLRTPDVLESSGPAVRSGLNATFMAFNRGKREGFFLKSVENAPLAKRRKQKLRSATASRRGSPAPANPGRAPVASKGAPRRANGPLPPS
# [9] = target: Casein kinase I isoform alpha (Homo sapiens) (UniProt P48729); assay: Inhibition of human full length CSNK1A1 expressed in baculovirus assessed as substrate phosphorylation using fluorescence-labelled peptides as substrate at 8 uM after 90 mins by microfluidic peptide phosphorylation assay
# Chain of Casein kinase I isoform alpha (Homo sapiens) (P48729 2-337 limits assumed): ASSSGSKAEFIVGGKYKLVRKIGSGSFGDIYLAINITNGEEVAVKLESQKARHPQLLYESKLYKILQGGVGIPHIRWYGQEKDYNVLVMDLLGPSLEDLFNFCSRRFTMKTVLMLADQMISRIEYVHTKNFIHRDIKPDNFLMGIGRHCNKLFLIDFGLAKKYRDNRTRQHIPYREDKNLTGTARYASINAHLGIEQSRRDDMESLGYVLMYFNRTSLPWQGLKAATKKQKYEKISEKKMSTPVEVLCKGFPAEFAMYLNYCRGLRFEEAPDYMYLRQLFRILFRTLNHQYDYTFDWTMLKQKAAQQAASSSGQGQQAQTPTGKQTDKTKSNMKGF
# [10] = target: Protein kinase C delta type (Homo sapiens) (UniProt Q05655); conditions: 0.1 uM
# Chain of Protein kinase C delta type (Homo sapiens) (Q05655 whole entry, looked up): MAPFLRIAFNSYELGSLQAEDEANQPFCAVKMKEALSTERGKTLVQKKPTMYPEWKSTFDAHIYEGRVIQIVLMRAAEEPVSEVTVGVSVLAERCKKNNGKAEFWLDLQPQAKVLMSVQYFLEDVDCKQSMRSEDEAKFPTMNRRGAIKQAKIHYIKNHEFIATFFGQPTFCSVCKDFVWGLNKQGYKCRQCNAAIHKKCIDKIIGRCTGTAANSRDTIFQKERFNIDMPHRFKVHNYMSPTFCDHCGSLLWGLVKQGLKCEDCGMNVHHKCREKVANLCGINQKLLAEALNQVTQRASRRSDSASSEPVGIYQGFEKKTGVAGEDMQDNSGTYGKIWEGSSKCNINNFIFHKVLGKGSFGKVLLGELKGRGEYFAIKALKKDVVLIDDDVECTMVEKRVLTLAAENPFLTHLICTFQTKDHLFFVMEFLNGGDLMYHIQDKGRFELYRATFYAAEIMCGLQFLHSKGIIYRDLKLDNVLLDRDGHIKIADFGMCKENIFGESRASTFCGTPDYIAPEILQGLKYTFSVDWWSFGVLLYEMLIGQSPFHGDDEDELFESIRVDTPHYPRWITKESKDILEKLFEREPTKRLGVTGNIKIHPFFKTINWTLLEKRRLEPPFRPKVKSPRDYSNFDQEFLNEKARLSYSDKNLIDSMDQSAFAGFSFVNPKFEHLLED
# Description: Inhibition of human truncated PKC delta expressed in baculovirus assessed as substrate phosphorylation using fluorescence-labelled peptides as substrate at 0.1 uM after 90 mins by microfluidic peptide phosphorylation assay
smiles,measurement,setting,value
CNCc1ccc(-c2ncnc3[nH]cnc23)cc1,inhibition,[1],22%
same,inhibition,[2],61%
Clc1ccc(C2(c3ccc(-c4ncnc5[nH]cnc45)cc3)CCNCC2)cc1,inhibition,[3],88.5%
NCC1CN(c2ncnc3[nH]c4cnccc4c23)CCO1 (stereo not given),inhibition,[4],44%
same,inhibition,[5],12%
c1cnc2[nH]ccc2c1,inhibition,[6],54%
NC1CCN(c2ncnc3[nH]ccc23)CC1,inhibition,[7],2.5%
NCC1CCN(c2ncnc3[nH]ccc23)CC1,inhibition,[8],50%
same,inhibition,[9],32.5%
C[C@H](CN(C)C)Oc1nc(Nc2cc3cccc(Cl)c3cn2)cnc1C#N,inhibition,[10],0%
